The structures appear in SMILES notation. Where “and” joins values, the source holds several entries; their conditions need not be identical. Equal values may be shown once.

The test system of one assay is reactive astrocytes. The following applies: Patent Literature 2; cited from earlier work.
The test system of assay [1] is four-vessel occlusion model of rats. The experiment in a line: Morris water maze Hidden test in four-vessel occlusion model. Format: in vivo, rat. The following applies: for Hidden test Latency / Hidden test Total distance moved: 4-VO rats; for Hidden test Latency / Hidden test Total distance moved / Time to reach the platform in the Hidden test, in words / Total distance moved in the Hidden test, in words: oral 28 d: arundic acid 30, taltirelin 10, combination 10+3 mg/kg/day; for Hidden test, At the time of grouping Latency: before administration, 1 week after 4-VO; for Time to reach the platform in the Hidden test, in words / Total distance moved in the Hidden test, in words: vs Group 2 control. The method, then: A Morris water maze test was performed by using a circular pool (168 cm in diameter and 40 cm in depth) filled with water, and a platform (10 cm in diameter and 30 cm in height) for escape of rats. In Zone 3, one transparent plastic escape platform (10 cm in diameter and 30 cm in height) was set at a location 40 cm away from the center of the pool, and […] away from the periphery of the pool. The water temperature of the water maze during the experiment was kept at 23° C. (±1.5° C.). A Hidden test was performed at the time of grouping 1 week after four-vessel occlusion, and on the day following the final administration of test drugs. For the Hidden test, the pool was filled with water to a height of 1 cm above the platform (water depth: 31 cm). A Transfer test was performed 3 days after the final administration of test drugs. For the Transfer test, the platform was removed, and the pool was filled with water to a water depth of 31 cm. To enable the rats to memorize surrounding various spatial arrangements, cues, such as posters and photographs, were placed on the wall. The cues always remained at the same locations during the experiment (FIG. 1: a plan view of Morris water maze, and the laboratory layout).
3) One week after restoration of blood flow, 5 trials of the Hidden test according to the Morris water maze test were performed with intervals of 30 minutes, and a cut-off time of 180 seconds. The rats were grouped by using swimming escape latency (time to reach the platform) as an index. After grouping, oral administration of the drug(s) was started. 4) The drug(s) were orally administered for 28 days. 5) On the day following the final administration of the drug, 5 trials of the Hidden Test for assessing spatial memory by using a water maze were performed with intervals of 30 minutes, and a cut-off time of 180 seconds. After 30 minutes, the platform was removed, and a Transfer test was performed with the pool being filled with water to a water depth of 31 cm.
From the starting point in Zone 1, the rats were thrown into a water maze with their heads being directed toward the outside of the water maze. The location of the platform was fixed at a point (corresponding to E in FIG. 1) on the east side in the water maze (corresponding to Zone 3 in FIG. 1). The maximum time of one trial was 180 seconds. When a rat reached the platform within 180 seconds, the rat was allowed to stand on the platform for 15 seconds. […] This rat was expected to learn the location of the platform by using surrounding various spatial arrangements as cues during the 180 seconds of the Hidden test and 15 seconds of being allowed to stand on the platform (Hidden test). In the Hidden test, swimming trajectory to the goal, swimming distance, swimming escape latency (time to reach the platform), and average swimming speed were measured per trial.
The behaviors of the rats in each trial were automatically analyzed with a CCD camera and the SMART (produced by Kyoto L Giken) behavioral analysis program by binarization of the white color of rats' fur and black ash color of the surrounding area.
Significant differences between the groups in spatial memory according to the Morris water maze method were determined by the nonparametric Dunnett's multiple comparison test. 6) After completion of the Morris water maze test, the brain of each rat was perfusion-fixed with 4% paraformaldehyde. The details are as follows.

Assay [2] concerns patients with Alzheimer's disease or patients with cerebrovascular dementia. The following applies: reported in literature; cited from earlier work.
Assay [3] relates to rats with lesioned bilateral regions including the ventral globus pallidus, substantia innominata, and preoptic area (BFs). The following applies: Non-patent Literature 1; cited from earlier work.
Assay [4] deals with rats with anoxia-induced amnesia. The following applies: Non-patent Literature 1; cited from earlier work.

For the molecule `CCCCCC[C@@H](CCC)C(=O)O` [Arundic acid, (R)-(−)-2-propyloctanoic acid], the GABAA receptor responsiveness result in the assay with reactive astrocytes is on record as “GABAA receptor responsiveness is recovered”. Besides, in assay [1] (Mean ± S.E.), the “Hidden test Latency” value stood at 78 ± 5.2 s; the “Hidden test Total distance moved” value is recorded as 17.4 ± 2.1 m; the “Hidden test, At the time of grouping Latency” value (from here on “Hidden test, At the time”) worked out at 102 ± 9.2 s. In addition, in assay [1] (individual rat, 3 mg/kg/day), the “Hidden test Latency” value was 73.8 s and 82.2 s and 90.3 s and 66.5 s; the “Hidden test Total distance moved” value was 13.0 m and 15.8 m and 17.9 m and 22.8 m. Moreover, in assay [1] (individual rat), the “Hidden test, At the time” value was 112.5 s and 86.9 s and 123.2 s and 87 s. Moreover, the “Spatial learning capacity and spatial memory capacity in the Morris water maze test, in words” value in assay [1] (oral 28 d: arundic acid 30, combination 10+3 mg/kg/day) is “did not affect spatial learning capacity and spatial memory capacity”. Moreover, in assay [1], the “Time to reach the platform in the Hidden test, in words” value is “no improvement in time to reach the platform” and the “Total distance moved in the Hidden test, in words” value is on record as “not considered to be significantly improved”.

As for `CN1C(=O)C[C@@H](C(=O)N[C@@H](Cc2c[nH]cn2)C(=O)N2CCC[C@H]2C(N)=O)NC1=O` [Taltirelin, N-[(4S)-1-methyl-2,6-dioxohexahydropyrimidine-4-carbonyl]-L-histidyl-L-prolinamide], in assay [2], the “Improvement effect compared with TRH” value is “higher improvement effect thereon than TRH”. For the same molecule, in assay [1] (Mean ± S.E.), the “Hidden test Latency” value was determined as 83 ± 6.6 s; the “Hidden test Total distance moved” value came to 16.1 ± 1.6 m; the “Hidden test, At the time” value was 102 ± 8.3 s. Moreover, in assay [1] (individual rat, 3 mg/kg/day), the “Hidden test Latency” value was 68.9 s and 88.1 s and 76.4 s and 99.1 s; the “Hidden test Total distance moved” value was 19.8 m and 15.0 m and 12.3 m and 17.1 m. The “Hidden test, At the time” value in assay [1] (individual rat) was 100.1 s and 97.2 s and 85.5 s and 124.8 s. For the same molecule, in assay [1], the “Time to reach the platform in the Hidden test, in words” value is “no improvement in time to reach the platform” and the “Total distance moved in the Hidden test, in words” value is given as “not considered to be significantly improved”. For the same molecule, in assay [3], the “Memory retrieval, active avoidance learning test” value is “improve memory retrieval”. Moreover, the “Memory retrieval, one-trial passive avoidance learning test” value in assay [4] is reported as “improve memory retrieval”.

The values are drawn from US10828303B2, “Composition comprising combination of TRH analog with arundic acid, and pharmaceutically acceptable salt of arundic acid” (Brivention Pharmaceutical (Shanghai) Inc., priority 2016, dated 2020).
